Measurements from patent US4743594A, “Antibiotic, antitumor compounds and their use” (priority 1984, dated 1988).
Values after ≈ are worked out from the molar mass of the structure shown.

How the values were obtained:
[1] = tested on: gram-positive bacteria; experiment: antibacterial activity against gram-positive bacteria; assay type: cell-based
Procedure: (§1) Antibiotics AT 2433 A1, AT 2433 A2, and AT 2433 B1 and AT 2433 B2 were tested in-vitro to determine anti-bacterial activity against a variety of gram-positive and gram-negative organisms
(§2) The in-vitro antibacterial activity tests were performed via conventional agar dilution methods in Muell-Hintom agar (MHA) at pH 7.4.

[2] = in-vivo antitumor activity against transplanted mouse P-388 leukemia (NCI test); settings: mouse, in vivo; every 3rd day for 3 injections, ip; read-out: maximum tolerated dose (no day 5 or earlier deaths due to toxicity)
Procedure: (§3) Anti-tumor activity was determined by the standard National Cancer Institute test which was published in Cancer Chemothr. Rep. 3:1-103, 1972.
(§4) In the test, 10^6 cells (a lethal dose) per mouse of P-388 leukemia are administered interperitoneally on day 0. The test compounds are serially diluted (1:2, 1:4, 1:8, etc.) and each dilution is administered interperitoneally to the mice on days 1, 4 and 7.
(§5) ^1 Tumor inoculum: 10^6 ascites cells, ip
(§6) ^2 Host: CDF1 male mice
(§7) ^3 Treatment schedule: For AT 2433 A1 and B1, ip. days 1, 4
(§8) ^4 Tox: Toxic, i.e., <4/6 mice alive on day 5
(§9) ^5 MST: Median survived time in days
(§10) ^6 % T/C: (MSTTreated/MST-Control) × 100
(§11) ^7 Criteria: If % T/C >125, the test compound is considered to exhibi
(§12) significant antitumor activity at that dose.

[3] = tested on: P-388 leukemia; experiment: as above; settings: for MST (% T/C): >125 = significant antitumor activity; for in-vivo antitumor activity: P-388 leukemia in mice
Procedure: as §3, §4, §5, §6, §7, §8, §9, §10, §11, §12

[4] = tested on: Sarcina lutea (ATCC 9341); experiment: in-vitro antibacterial activity, agar dilution (MIC); assay type: cell-based; settings: Micrococcus luteus, ATCC9341, MHA, 48 hrs, pH 7.4, read-out: Minimum Inhibitory Concentration (MIC)
Procedure: as §1, §2

[5] = tested on: gram-negative bacteria; experiment: antibacterial activity against gram-negative bacteria; assay type: cell-based
Procedure: as §1, §2

[6] = tested on: E. Coli SS 1431; experiment: in-vitro antibacterial activity, agar dilution (MIC); assay type: cell-based; settings: Escherichia coli, MHA, 48 hrs, pH 7.4
Procedure: as §1, §2

[7] = 0.5 mg/kg/inj, ip, days 1, 4 and 7
[8] = 0.5 mg/kg/inj, ip, days 1, 4 and 7, CDF1 male mice
[9] = 1 mg/kg/inj, ip, days 1, 4 and 7
[10] = 1 mg/kg/inj, ip, days 1, 4 and 7, CDF1 male mice
[11] = 2 mg/kg/inj, ip, days 1, 4 and 7
[12] = 2 mg/kg/inj, ip, days 1, 4 and 7, CDF1 male mice
[13] = 4 mg/kg/inj, ip, days 1, 4 and 7
[14] = 4 mg/kg/inj, ip, days 1, 4 and 7, CDF1 male mice
[15] = 8 mg/kg/inj, ip, days 1, 4 and 7
[16] = 8 mg/kg/inj, ip, days 1, 4 and 7, CDF1 male mice
[17] = 16 mg/kg/inj, ip, days 1, 4 and 7, CDF1 male mice
[18] = 16 mg/kg/inj, ip, days 1, 4 and 7

## CNC1COC(OCC2OC(n3c4c(Cl)cccc4c4c5c(c6c7ccccc7[nH]c6c43)C(=O)N(C)C5=O)C(O)C(O)C2OC)CC1O (stereo not drawn) [AT 2433 A1]
[1]
  antibacterial activity against gram-positive bacteria: active
[2]
  MTD: 2 mg/kg
[3]; [7]
  MST (% T/C): 150%
  Avg. wt. change, gm on day 5: -0.2 gm
  Survivors day 5: 6/6
[3]; [8]
  MST (median survived time): 13.5 days
[3]; [9]
  MST (% T/C): 150%
  Avg. wt. change, gm on day 5: -0.7 gm
  Survivors day 5: 6/6
[3]; [10]
  MST (median survived time): 13.5 days
[3]; 2 mg/kg given every 3rd day for 3 injections
  increase in life span over controls: 72%
[3]; [11]
  MST (% T/C): 172%
  Avg. wt. change, gm on day 5: -2.2 gm
  Survivors day 5: 6/6
[3]; [12]
  MST (median survived time): 15.5 days
[3]; [13]
  MST (% T/C): 156%
  Avg. wt. change, gm on day 5: -2.3 gm
  Survivors day 5: 5/6
[3]; [14]
  MST (median survived time): 14.0 days
[3]; [15]
  MST (% T/C): 194%
  Avg. wt. change, gm on day 5: -4.1 gm
  Survivors day 5: 4/6
[3]; [16]
  MST (median survived time): 17.5 days
[3]; [17]
  MST (% T/C) (toxicity flag): Tox (Toxic, i.e., <4/6 mice alive on day 5)
  MST (toxicity flag): Tox (Toxic, i.e., <4/6 mice alive on day 5)
[3]; [18]
  Avg. wt. change, gm on day 5: -3.2 gm
  Survivors day 5: 2/6
[3]
  in-vivo antitumor activity: exhibited in-vivo antitumor activity
[4]
  MIC: 0.25 µg/mL (≈ 0.368 µM)

## COC1C(COC2CC(O)C(N)CO2)OC(n2c3c(Cl)cccc3c3c4c(c5c6ccccc6[nH]c5c32)C(=O)N(C)C4=O)C(O)C1O (stereo not drawn) [AT 2433 A2]
[1]
  antibacterial activity against gram-positive bacteria: active
[4]
  MIC: 1 µg/mL (≈ 1.5 µM)

## CNC1COC(OCC2OC(n3c4ccccc4c4c5c(c6c7ccccc7[nH]c6c43)C(=O)N(C)C5=O)C(O)C(O)C2OC)CC1O (stereo not drawn) [AT 2433 B1]
[1]
  antibacterial activity against gram-positive bacteria: active
[5]
  antibacterial activity against gram-negative bacteria: exhibit antibacterial activity
[3]; [7]
  MST (% T/C): 111%
  Avg. wt. change, gm on day 5: 3.0 gm
  Survivors day 5: 5/5
[3]; [8]
  MST (median survived time): 10.0 days
[3]; [9]
  MST (% T/C): 117%
  Avg. wt. change, gm on day 5: 3.0 gm
  Survivors day 5: 5/5
[3]; [10]
  MST (median survived time): 10.5 days
[3]; [11]
  MST (% T/C): 122%
  Avg. wt. change, gm on day 5: 0.0 gm
  Survivors day 5: 6/6
[3]; [12]
  MST (median survived time): 11.0 days
[3]; [13]
  MST (% T/C): 133%
  Avg. wt. change, gm on day 5: -0.6 gm
  Survivors day 5: 6/6
[3]; [14]
  MST (median survived time): 12.0 days
[3]; [15]
  MST (% T/C): 133%
  Avg. wt. change, gm on day 5: -0.3 gm
  Survivors day 5: 6/6
[3]; [16]
  MST (median survived time): 12.0 days
[3]; [18]
  MST (% T/C): 144%
  Avg. wt. change, gm on day 5: -0.7 gm
  Survivors day 5: 6/6
[3]; [17]
  MST (median survived time): 13.0 days
[3]
  in-vivo antitumor activity: exhibited in-vivo antitumor activity
[3]; highest dose tested, 16 mg/kg
  tumor growth inhibition: inhibitory to tumor growth but less effective than AT 2433 A1
[6]
  MIC: 16 µg/mL (≈ 24.8 µM)
[4]
  MIC: 0.25 µg/mL (≈ 0.388 µM)

## COC1C(COC2CC(O)C(N)CO2)OC(n2c3ccccc3c3c4c(c5c6ccccc6[nH]c5c32)C(=O)N(C)C4=O)C(O)C1O (stereo not drawn) [AT 2433 B2]
[1]
  antibacterial activity against gram-positive bacteria: active
[4]
  MIC: 4 µg/mL (≈ 6.34 µM)
